# Entries after “also recorded” stand apart in the source; their conditions may differ. Read-outs that look alike come from different tables or passages of the source. *: point of attachment. Myristoyl = CCCCCCCCCCCCCC(=O)*
# Tests used:
# [1] = test system: bleomycin induced ALI mouse model; test: Lung collagen deposition (hydroxyproline assay, Masson's trichrome) in bleomycin ALI model; assay type: in vivo; details: for lung fibrosis / lung injury resolution, biochemical and histological evidence: active TGF β, hydroxyproline, Masson staining
# Experimental: (§1) Animal protocols were approved by the Institutional Animal Care and Use Committee at the University of Iowa. C57BL/6 mice (Jackson Laboratories, Bar Harbor, Me.) were anesthetized followed by intratracheal instillation of: (A) Control (Ctrl): 1 μl of DMSO (Sigma, St. Louis, Mo.) plus 49 μl of PBS; (B) Bleomycin (Bleo): 1 μl of DMSO plus 49 μl of bleomycin (APP pharmaceuticals, LLC Schaumburg, Ill.) dissolved in PBS (4 U/kg); (C) Bleomycin/PKCζi (Bleo/PKCζi): 1 μg of PKCζi (Calbiochem EMD Biosciences, San Diego, Calif.) solubilized in 1 μl of DMSO plus 49 μl of bleomycin (4 U/Kg) dissolved in PBS (Calbiochem EMD Biosciences, San Diego, Calif.). After this treatment, all mice were instilled (50 μl) every 72 hours with 1 μl of DMSO plus 49 μl of PBS in the Ctrl and Bleo group or with 1 μg of PKCζi dissolved in 1 μl of DMSO plus 49 μl of PBS in the Bleo/PKCζi group for the duration of the experiment. Mice were treated for up to 6 weeks (FIG. 1A). All conditions had between 4 to 6 animals.
# The collagen content in the lung homogenates was determined with a hydroxyproline assay, as described previously (26). In addition, lung collagen deposition was examined in lung sections stained with Masson's trichrome.
# [2] = test system: bleomycin induced ALI mouse model; test: BALF total protein concentration (alveolar-capillary permeability), Bradford assay; assay type: in vivo; details: week 1 post injury
# Experimental: as §1
# Bronchoalveolar lavage was performed as previously described (18). Total cell count was examined by hemocytometer and the percent of neutrophils cells in the bronchoalveolar lavage fluid (BALF) by cytospin slides stained with Wright's-Giemsa. Total protein concentration was measured by Bradford assay (Bio-Rad, Hercules, Calif.).
# [3] = test system: surfactant protein C (SPC); test: Surfactant protein C (SPC) by Western blot in bleomycin ALI model; assay type: in vivo, mouse
# Experimental: (§2) (4) PKC-ζi partially preserves lung compliance. Briefly, trachea was surgically exposed and tracheal cannula (18 gauge, Angiocath, Becton Dickinson, Sandy, Utah, USA) placed and secure in the lumen. The mice were paralyzed using intraperitoneal rocuronium (1 mg/Kg) to prevent spontaneous breathing and mechanically ventilated on a computer controlled respirator (flexiVent, SCIREQ Inc., Montreal, Canada). The ventilator was set up to deliver tidal volume 6 ml/kg for 10 minutes; respiratory rate of 150 breaths/min; 3 cmH2O positive end expiratory pressure (PEEP). The compliance was determined using the maneuver Pressure-volume ramp volume regulated (PVrV) to calculate the Quasi-static compliance. […] Since lung compliance is the product of an intact epithelial barrier and surfactant production, and PKCζ have been reported to be involved in surfactant production (Gobran et al., (1998). “PKCζ isoforms and other signaling proteins involved in surfactant secretion in developing rat type II cells.” Am J Physiol 274(6 Pt 1): L901-907), the inventors decided to examine by Western blot analysis total amount of SPC in BALF. […] Therefore, our results are likely due to preservation of the alveolar epithelial barrier.
# Animal protocols were approved by the Institutional Animal Care and Use Committee at the University of Iowa. […]
# [4] = test system: isolated rat primary alveolar epithelial cells; details: hypoxia and diesel exhaust particle in vitro lung injury models, cited from earlier work
# [5] = test system: bleomycin induced ALI mouse model; test: Lung compliance (flexiVent) in bleomycin ALI model; assay type: in vivo; details: for lung compliance, PKC-ζi instilled post injury: measured at one week; for lung compliance: week 1 post injury, PKCζi given with bleomycin and every 72 hours
# Experimental: as §2
# (7) Treatment of mice with PKC-ζi after initial injury continues to be effective in preserving lung compliance. Since the majority of clinical scenarios involve the treatment of patients with established ALI, we set out to examine the effect of PKC-ζi post injury by instilling 6 and 24 hours after bleomycin instillation. Lung compliance was measured at one week.
# as §1
# Mice were anesthetized, paralyzed and lung function assessed with the flexiVent Legacy. (SCIREQ Inc., Montreal, Canada).
substance,measurement,setting,value
N-Myristoyl-Ser-Ile-Tyr-Arg-Arg-Gly-Ala-Arg-Arg-Trp-Arg-Lys-Leu-OH (Myristoyl-SIYRRGARRWRKL-OH; SMILES CCCCCCCCCCCCCC(=O)N[C@@H](CO)C(=O)N[C@H](C(=O)N[C@@H](Cc1ccc(O)cc1)C(=O)N[C@@H](CCCNC(=N)N)C(=O)N[C@@H](CCCNC(=N)N)C(=O)NCC(=O)N[C@@H](C)C(=O)N[C@@H](CCCNC(=N)N)C(=O)N[C@@H](CCCNC(=N)N)C(=O)N[C@@H](Cc1c[nH]c2ccccc12)C(=O)N[C@@H](CCCNC(=N)N)C(=O)N[C@@H](CCCCN)C(=O)N[C@@H](CC(C)C)C(=O)O)[C@@H](C)CC) [PKCζi],collagen lung deposition by Masson's staining,"[1]; FIG. 4C, printed as week 3",decreased collagen lung deposition by masson's staining at week 3 compared to bleomycin group
same,"hydroxyproline content, PKCζi only during the first week",[1]; measured at week 6,increase hydroxyproline content similar to Bleomycin alone group at week 6
same,histological lung collagen deposition,"[1]; three weeks after bleomycin, Example 1",histological evidence of lung collagen deposition
same,lung hydroxyproline concentration,[1]; week 3 post injury,no difference in active TGF β and hydroxyproline concentrations compared to bleomycin group; also recorded: does not decrease hydroxyproline concentration
same,lung hydroxyproline concentration,"[1]; week 3 post injury, listed as PKC-ζi",high concentrations of hydroxyproline
same,"lung fibrosis / lung injury resolution, biochemical and histological evidence",[1]; week 6,demonstrated lung injury resolution in the PKCζi treated group
same,"lung fibrosis / lung injury resolution, biochemical and histological evidence","[1]; week 6, listed as PKC-ζi",total resolution of lung fibrosis in the PKC-ζi treated group
same,lung hydroxyproline concentration,"[1]; week 6, continuous PKCζi treatment",decreased hydroxyproline concentration at week 6 compare to bleomycin group
same,BALF protein concentration,[2],prevented the increase in mice BALF protein concentration compared to bleomycin group; also recorded: prevents increase in BALF protein concentration in bleomycin treated mice
same,BALF protein concentration,[2]; listed as PKC-ζ inhibitor,prevents increased protein content in BAL in bleomycin induced ALI
same,total amount of SPC in BALF (Western blot),[3]; Example 1,did not prevent a reduction in SPC
same,total SPC in whole lungs (Western blot),"[3]; week 1, Example 2",did not prevent the reduction in SPC caused by bleomycin injury; also recorded: does not prevent total SPC decrease in the lungs
same,alveolar epithelial barrier integrity,[4],prevents the disruption of the epithelial barrier in isolated rat primary alveolar epithelial cells
same,alveolar epithelial barrier integrity,[4]; listed as PKC-ζ inhibitor,preserves the alveolar epithelial barrier
same,"lung compliance, PKC-ζi instilled post injury",[5]; instillation 6 hours after bleomycin,prevented the decrease in lung compliance
same,"lung compliance, PKC-ζi instilled post injury",[5]; instillation 24 hours after bleomycin,no protective effect
same,lung compliance,[5],partial but statistically significant prevention in the lung compliance decrease compared to bleomycin alone group; also recorded: preserves lung compliance compare to bleomycin
same,lung compliance,[5]; listed as PKC-ζi,partially preserve lung compliance compared to control

# Reference: patent US10328114B2, “Lung injury repair compositions and methods” (University of Iowa Research Foundation, priority 2015, dated 2019)
